The values that follow come from US20250288568A1, “NEW CRYSTAL FORM OF A PDE4 INHIBITOR” (CHIESI FARMACEUTICI S.P.A., priority 2022, published 2025).

Each structure is given as a SMILES string. In brackets after ≈: the same amount, converted by molar mass.

The nature of data set [1]: Solubility in Simulated Lung Fluid (SLF), saturation shake-flask method. The note with it: for solubility at 0.5 h / solubility at 1 h / solubility at 3 h: simulated lung fluid (SLF), aqueous with cosolvent or surfactant or cyclodextrin, thermodynamic from solid, SLF with 0.02% v/v Tween 80, pH 6.5, 37° C. It counts as physicochemical. The procedure:
A study of solubility in SLF for the characterization of the crystal Form 2 and crystal Form A of the compound of formula (I), was performed. The use of SLF, that mimics the physiologically lung fluid, can give a good understanding of the dissolution mechanism and possible in vivo behavior of a product, enhancing the predictive capability of the dissolution testing in terms of bioavailability and therapeutic effectiveness.
The experimental method used is based on saturation shake-flask method. The samples were prepared by adding, respectively, an excess of the crystal Form 2 of the compound of formula (I) and an excess of the crystal Form A of the compound of formula (I), to the solubility medium SLF. The solubility concentration value is the thermodynamic equilibrium concentration, determined by assaying the solute concentration of the filtrate from a saturated solution, using an analytical method by UPLC-MS (MRM quantification; calibration: from 0.01 to 10 μg/ml; every batch have been tested in duplicate and samples have been filtered and diluted 1/10 in duplicate).
The SLF used for the tests were prepared analogously to literature (Simulated Biological Fluids with Possible Application in Dissolution Testing, Dissolution Technologies, 2011, dx.doi.org/10.14227/DT180311P15, table 11, page 2215). To mimic better the lung fluid, a surfactant, particularly Tween 80, has been added (0.02% v/v).
The solubility profile of the crystal Form 2 and the crystal Form A of the compound of formula (I) was determined in SLF adjusted with acetic acid (1M) to pH of 6.5, in order to simulate an inflammation condition in the lung. The experiment was conducted at 37° C.
The following experimental conditions were applied for the SLF dissolution profile study respectively for the crystal Form 2 and the crystal Form A of the compound of formula (I). About 2.5 mg of the crystal Form 2 or the crystal Form A of the compound of formula (I) was dispersed in 2.5 ml of SLF with stirring system. The concentration of material in solution was determined after 0.5, 1 and 3 hours. In each time interval, the vessel stirring was stopped, and 180-250 μl of each samples have been collected and filtered by RC Membrane Syringe Filters 0.45 μm and injected in UPLC apparatus.

Data set [2] is described as follows: Lung PK after intratracheal administration to Sprague-Dawley rats (PreciseInhale system). It counts as in vivo. The note with it: rat, inhaled or intranasal, male Sprague-Dawley rats, 10 μg/lung deposited dose. The method, then:
Crystal Form 2 of the compound of formula (I) was intratracheally administered to Sprague-Dawley rats using the PreciseInhale system at the dose of 10 μg/lung deposited dose. Powder aerosols was generated using 40 bar generating pressure. A total number of 24 Sprague-Dawley male rats was used for PK investigation; 8 time points for each study, n=3 rats/time point. Before administration, rats were anesthetized with sevoflurane and endotracheally intubated using appropriate steel catheters. Aerosol administration was performed connecting the catheter to the PreciseInhale system, previously set to deliver 10 μg/lung deposited dose to each animal.
Lung t1/2 is the terminal half-life, calculated by the formula ln(2)/λz, where λz is the first-order rate constant associated with the terminal (log-linear) portion of the curve. Estimated by linear regression of time vs. log concentration; i.e. the time it takes for the concentration of the drug in the lung to be reduced by 50%.
Lung MRTlast is the mean residence time from the time of dosing to the time of the last measurable concentration; i.e. the average time a molecule stays in the lung.

What is called solubility is the concentration that dissolves in the medium under given conditions. Read a high solubility as a readily soluble substance. With `CS(=O)(=O)Nc1ccc(C(=O)O[C@@H](Cc2c(Cl)c[n+]([O-])cc2Cl)c2ccc(OC(F)F)c(OCC3CC3)c2)cc1OCC1CC1` [Crystal Form A, 3,5-dichloro-4-[(2S)-2-[3-(cyclopropylmethoxy)-4-(difluoromethoxy)phenyl]-2-{[3-(cyclopropylmethoxy)-4-(methanesulfonamido)benzoyl]oxy}ethyl]pyridine1-oxide, reference compound], in data set [1], the solubility at 0.5 h was 0.16 µg/mL (≈ 0.233 µM), the solubility at 1 h was 0.18 µg/mL (≈ 0.262 µM) and the solubility at 3 h is 0.2 µg/mL (≈ 0.291 µM).

With `CS(=O)(=O)Nc1ccc(C(=O)O[C@@H](Cc2c(Cl)c[n+]([O-])cc2Cl)c2ccc(OC(F)F)c(OCC3CC3)c2)cc1OCC1CC1` (single isomer, unassigned) [Crystal Form 2], the “Higher solubility in SLF with respect to the crystal Form A” value in data set [1] (crystal Form 2 vs crystal Form A, SLF, at 0.5, 1 and 3 hours) is given as “at least 4.5 fold”. In addition, in data set [1], the solubility at 0.5 h is 0.74 µg/mL (≈ 1.08 µM), the solubility at 1 h was 0.89 µg/mL (≈ 1.29 µM) and the concentration in solution (solubility at 3 h) was 0.88 µg/mL (≈ 1.28 µM). Besides, in data set [2] (mean residence time to last measurable concentration, read-out: Lung MRTlast), the MRT last was found to be 9.4 h. Also, the half-life in data set [2] (terminal half-life in lung, read-out: Lung t1/2 (converted)) was 7.7 h.
